pIC50: −log10 of the molar value.
System: MV-4-11 cells
Assay: Cell Viability Assay in MV-4-11 Cells
Assay type: cell-based
Conditions: Homo sapiens, MV4-11, 72 h
In short: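 MV-4-11 cells at 7,000/well in IMDM with 10% FBS, exposed to compound for 72 h. Viability by CellTiter-Glo luminescence, normalized to DMSO as 100%, fitted with a four-parameter curve.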

Row | SMILES | pIC50
1 | Cn1cc(-c2ccc(C(=O)N(c3nccc4sc(C(=O)Nc5ccncc5)cc34)[C@@H]3CCCNC3)c(F)c2)nn1 [Example 813, (R)-4-(2-fluoro-4-(1-methyl-1H-1,2,3-triazol-4-yl)-N-(piperidin-3-yl)benzamido)-N-(pyridin-4-yl)thieno[3,2-c]pyridine-2-carboxamide] | 6.26
2 | Cc1n[nH]c(-c2ccc(C(=O)N(c3nccc4cccc(C)c34)[C@@H]3CCCNC3)c(F)c2)n1 [Example 324, (R)-2-fluoro-4-(3-methyl-1H-1,2,4-triazol-5-yl)-N-(8-methylisoquinolin-1-yl)-N-(piperidin-3-yl) benzamide] | 5.82

Same assay, conditions: Homo sapiens, MV4-11, 72 h, MV-4-11 cells, 72 h, Cell-Titer Glo; read-out: IC50

Row | pIC50 | SMILES
3 | 6.64 | Nc1c(F)cc(-c2cc3c(N(C(=O)c4ccc(-n5nnc6cccnc65)cc4F)[C@@H]4CCCNC4)nccc3s2)cc1F [Example 565, N-[2-(4-amino-3,5-difluoro-phenyl)thieno[3,2-c]pyridin-4-yl]-2-fluoro-N-[(3R)-3-piperidyl]-4-(triazolo[4,5-b]pyridin-3-yl)benzamide]
4 | 7.80 | Cc1cc(F)cc2ccnc(N(C(=O)c3ccc(-c4cn(C)nn4)cc3)[C@@H]3CCCNC3)c12 [Example 614, (R)—N-(6-fluoro-8-methylisoquinolin-1-yl)-4-(1-methyl-1H-1,2,3-triazol-4-yl)-N-(piperidin-3-yl)benzamide]
5 | 7.47 | Cc1cccc2ccnc(N(C(=O)c3ccc(Nc4ncnc(N5CCOCC5)n4)cc3F)[C@@H]3CCCNC3)c12 [Example 970, 2-fluoro-N-(8-methylisoquinolin-1-yl)-4-{[4-(morpholin-4-yl)-1,3,5-triazin-2-yl]amino}-N-[(3R)-piperidin-3-yl]benzamide]
6 | 7.06 | Cc1nnc(-c2ccc(C(=O)N(c3nccc4cc(Cl)cc(C)c34)[C@@H]3CCCNC3)cc2)s1 [Example 755, (R)—N-(6-chloro-8-methylisoquinolin-1-yl)-4-(5-methyl-1,3,4-thiadiazol-2-yl)-N-(piperidin-3-yl)benzamide]
7 | 6.19 | O=C(c1ccc(-n2nnc3cccnc32)cc1F)N(c1nccc2cc(-c3ccccn3)ccc12)[C@@H]1CCCNC1 [Example 556, (R)-4-(3H-[1,2,3]triazolo[4,5-b]pyridin-3-yl)-2-fluoro-N-(piperidin-3-yl)-N-(6-(pyridin-2-yl)isoquinolin-1-yl) benzamide]
8 | 6.82 | [2H]C([2H])([2H])c1nnc(-c2ccc(C(=O)N(c3nccc4cccc(C)c34)[C@@H]3CCCNC3)c(F)c2)s1 [Example 899, 2-fluoro-N-(8-methyl-1-isoquinolyl)-N-[(3R)-3-piperidyl]-4-[5-(trideuteriomethyl)-1,3,4-thiadiazol-2-yl]benzamide]
9 | 6.28 | Cn1cc(-c2ccc(C(=O)N(c3nccc4cc(-c5ccccc5O)ccc34)[C@@H]3CCCNC3)c(F)c2)nn1 [Example 493, (R)-2-fluoro-N-(6-(2-hydroxyphenyl)isoquinolin-1-yl)-4-(1-methyl-1H-1,2,3-triazol-4-yl)-N-(piperidin-3-yl)benzamide]
10 | 7.35 | COCCc1nnc(-c2ccc(C(=O)N(c3nccc4cc(C)cc(C)c34)[C@@H]3CCCNC3)cn2)s1 [Example 903, N-(6,8-dimethyl-1-isoquinolyl)-6-[5-(2-methoxyethyl)-1,3,4-thiadiazol-2-yl]-N-[(3R)-3-piperidyl]pyridine-3-carboxamide]
11 | 6.92 | Cc1cccc2ccnc(N(C(=O)c3ccc(Nc4nccc(CN5CCN(C)CC5)n4)cc3F)[C@@H]3CCCNC3)c12 [Example 934, (R)-2-fluoro-N-(8-methylisoquinolin-1-yl)-4-((4-((4-methylpiperazin-1-yl)methyl)pyrimidin-2-yl)amino)-N-(piperidin-3-yl)benzamide]
12 | 6.82 | C#Cc1ccc2c(N(C(=O)c3ccc(-n4nnc5cccnc54)cc3F)[C@@H]3CCCNC3)nccc2c1 [Example 396, (R)-4-(3H-[1,2,3]triazolo[4,5-b]pyridin-3-yl)-N-(6-ethynylisoquinolin-1-yl)-2-fluoro-N-(piperidin-3-yl)benzamide]
13 | 6.54 | O=C(c1ccc(-n2nnc3cccnc32)cc1F)N(c1nccc2cc(-c3cc[nH]c(=O)c3)ccc12)[C@@H]1CCCNC1 [Example 440, (R)-4-(3H-[1,2,3]triazolo[4,5-b]pyridin-3-yl)-2-fluoro-N-(6-(2-oxo-1,2-dihydropyridin-4-yl)isoquinolin-1-yl)-N-(piperidin-3-yl)benzamide]
14 | 7.24 | Cc1cc(Cl)cc2ccnc(N(C(=O)c3ccc(-c4cn(C)nn4)nc3)[C@@H]3CCCNC3)c12 [Example 884, N-(6-chloro-8-methyl-1-isoquinolyl)-6-(1-methyltriazol-4-yl)-N-[(3R)-3-piperidyl]pyridine-3-carboxamide]
15 | 5.92 | CNS(=O)(=O)c1cccc(-c2cc3c(N(C(=O)c4ccc(-c5cn(C)nn5)cc4F)[C@@H]4CCCNC4)nccc3s2)c1 [Example 535, 2-fluoro-N-[2-[3-(methylsulfamoyl)phenyl]thieno[3,2-c]pyridin-4-yl]-4-(1-methyltriazol-4-yl)-N-[(3R)-3-piperidyl]benzamide]
16 | 7.00 | CCn1cc(-c2ccc(C(=O)N(c3nccc4scc(C)c34)[C@@H]3CCCNC3)cc2)nn1 [Example 859, 4-(1-ethyltriazol-4-yl)-N-(3-methylthieno[3,2-c]pyridin-4-yl)-N-[(3R)-3-piperidyl] benzamide]
17 | 6.04 | Cn1cc(-c2ccc(C(=O)N(c3nccc4sc(C(N)=O)cc34)[C@@H]3CCCNC3)c(F)c2)nn1 [Example 552, 4-[[2-fluoro-4-(1-methyltriazol-4-yl)benzoyl]-[(3R)-3-piperidyl]amino] thieno [3,2-c] pyridine-2-carboxamide]
18 | 7.16 | COCCNc1ccnc(Nc2ccc(C(=O)N(c3nccc4cccc(C)c34)[C@@H]3CCCNC3)c(F)c2)n1 [Example 744, (R)-2-fluoro-4-((4-((2-methoxyethyl)amino)pyrimidin-2-yl)amino)-N-(8-methylisoquinolin-1-yl)-N-(piperidin-3-yl)benzamide]
19 | 7.09 | Cc1cccc2ccnc(N(C(=O)c3ccc(Nc4nccc(-n5cccn5)n4)cc3F)[C@@H]3CCCNC3)c12 [Example 723, (R)-4-((4-(1H-pyrazol-1-yl)pyrimidin-2-yl)amino)-2-fluoro-N-(8-methylisoquinolin-1-yl)-N-(piperidin-3-yl)benzamide]
20 | 5.74 | Cn1cc(-c2ccc(C(=O)N(c3nccc4sc(-c5ccc6c(c5)NC(=O)C6)cc34)[C@@H]3CCCNC3)c(F)c2)nn1 [Example 544]
21 | < 5.00 | Cn1cc(-c2ccc(C(=O)N(c3nccc4sc(-c5ccc(C(=O)NCCO)cc5)cc34)[C@@H]3CCCNC3)c(F)c2)nn1 [Example 524]
22 | 6.60 | CCc1nnc(-c2ccc(C(=O)N(c3nccc4scc(Cl)c34)[C@@H]3CCCNC3)nc2)s1 [Example 668, N-(3-chlorothieno[3,2-c]pyridin-4-yl)-5-(5-ethyl-1,3,4-thiadiazol-2-yl)-N-[(3R)-3-piperidyl]pyridine-2-carboxamide]
23 | 7.05 | Cc1cccc2ccnc(N(C(=O)c3ccc(C#N)c(-c4ccc(-c5ccncc5)cc4)c3)[C@@H]3CCCNC3)c12 [Example 330, 4-cyano-N-(8-methyl-1-isoquinolyl)-N-[(3R)-3-piperidyl]-3-[4-(4-pyridyl)phenyl]benzamide]
24 | 7.42 | Cc1cc(Cl)cc2ccnc(N(C(=O)c3ccc(-c4cn(C)nn4)cc3)[C@@H]3CCCNC3)c12 [Example 802, (R)—N-(6-chloro-8-methylisoquinolin-1-yl)-4-(1-methyl-1H-1,2,3-triazol-4-yl)-N-(piperidin-3-yl)benzamide]

From patent US20240400555A1 (Initial Therapeutics, Inc., priority 2023, published 2024)
